Measured values taken from ChEMBL document CHEMBL1201862, “PubChem BioAssay data set” (2004).
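Compound exposure: 48 hours, 5 concentrations, 96-well plates. Here, GI50 denotes the concentration required for 50% inhibition of growth.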 Active and inactive are the calls of the source. Cut-off read from the data, not from the text of the source: active = GI50 up to about 1.1 µM and inactive = higher.

How the values were obtained:
Experiment in all cases: DTP human tumour cell line panel, 48 h
786-0 = tested on: 786-0
A549 = tested on: A549
CCRF-CEM = tested on: CCRF-CEM
HCT-116 = tested on: HCT-116
HL-60 = tested on: HL-60
HOP-62 = tested on: HOP-62
IGROV-1 = tested on: IGROV-1
MOLT-4 = tested on: MOLT-4
NCI-H460 = tested on: NCI-H460
OVCAR-3 = tested on: OVCAR-3
RPMI-8226 = tested on: RPMI-8226
RXF 393 = tested on: RXF 393
SF-295 = tested on: SF-295
SK-MEL-5 = tested on: SK-MEL-5
SN12C = tested on: SN12C
SR = tested on: SR
UACC-257 = tested on: UACC-257
UO-31 = tested on: UO-31
HOP-92 = tested on: HOP-92
MCF7 = tested on: MCF7

Measured: GI50

COC(=O)c1s/c(=N\C(=S)N(C)C)n(-c2ccc(Cl)cc2)c1C(=O)OC
inactive: 786-0 > 100 µM | A549 > 100 µM | CCRF-CEM > 100 µM | HCT-116 > 100 µM | HL-60 > 100 µM | HOP-62 70.3 µM | IGROV-1 > 10 µM | MOLT-4 > 100 µM | NCI-H460 71.8 µM | OVCAR-3 > 100 µM | RPMI-8226 > 100 µM | RXF 393 78.9 µM | SF-295 > 100 µM | SK-MEL-5 > 10 µM | SN12C > 100 µM | SR > 100 µM | UACC-257 > 100 µM | UO-31 > 100 µM

C[N+](C)(C)C.FC(F)(F)C1(C(F)(F)F)O[SiH-]2(OC(C(F)(F)F)(C(F)(F)F)c3ccccc32)c2ccccc21
inactive: 786-0 16.7 µM | A549 10 µM | MOLT-4 11.7 µM | NCI-H460 8.97 µM | OVCAR-3 18.9 µM | RPMI-8226 16.4 µM | RXF 393 13 µM | SF-295 4.81 µM | SN12C 18.1 µM | SR 14.5 µM | UACC-257 24.4 µM | UO-31 14.6 µM

CCNC(C)Cc1ccccc1 (stereo not drawn)
inactive: 786-0 > 100 µM | A549 > 100 µM | CCRF-CEM > 100 µM | HCT-116 > 100 µM | HL-60 > 100 µM | HOP-62 > 100 µM | HOP-92 > 100 µM | IGROV-1 > 100 µM | NCI-H460 > 100 µM | OVCAR-3 > 100 µM | RPMI-8226 > 100 µM | RXF 393 > 100 µM | SF-295 > 100 µM | SK-MEL-5 > 100 µM | SN12C > 100 µM | SR > 100 µM | UACC-257 > 100 µM | UO-31 > 100 µM

CC(C)(C)C1=CC(=N/N=c2\scc(-c3ccccc3)n2Cc2ccccc2)C=C(C(C)(C)C)C1=O
inactive: 786-0 > 100 µM | A549 > 100 µM | CCRF-CEM > 100 µM | HCT-116 > 100 µM | HL-60 > 100 µM | HOP-62 > 100 µM | MOLT-4 > 100 µM | NCI-H460 > 100 µM | OVCAR-3 > 100 µM | RXF 393 > 100 µM | SF-295 > 100 µM | SK-MEL-5 > 100 µM | SN12C > 100 µM | SR > 100 µM | UACC-257 > 100 µM | UO-31 > 100 µM

COc1ccc(N2C(=O)[C@@H]3[C@@H]4CC(C)CC[C@@H]4c4c([nH]c5ccccc45)[C@@H]3C2=O)cc1 (stereo partly drawn)
inactive: 786-0 7.45 µM | A549 17.3 µM | CCRF-CEM 24.2 µM | HCT-116 6.44 µM | HL-60 29.1 µM | HOP-62 12.6 µM | HOP-92 5.92 µM | IGROV-1 18.8 µM | MOLT-4 19.8 µM | NCI-H460 13.5 µM | OVCAR-3 19.8 µM | RPMI-8226 > 10 µM | SF-295 12.4 µM | SK-MEL-5 34 µM | SN12C 11.2 µM | SR 12.6 µM | UACC-257 53.8 µM | UO-31 17 µM

CC1=C(C)CC2(CCCCC2=O)[S+]([O-])C1 (stereo not drawn)
inactive: 786-0 > 100 µM | A549 > 100 µM | CCRF-CEM > 100 µM | HCT-116 > 100 µM | HL-60 > 100 µM | HOP-62 > 100 µM | HOP-92 > 100 µM | IGROV-1 > 100 µM | MOLT-4 > 100 µM | NCI-H460 > 100 µM | OVCAR-3 > 100 µM | RPMI-8226 > 100 µM | RXF 393 > 100 µM | SF-295 > 100 µM | SK-MEL-5 > 100 µM | SN12C > 100 µM | SR > 100 µM | UACC-257 > 100 µM | UO-31 > 100 µM

O=C(Nc1c(Cl)cc([N+](=O)[O-])cc1Cl)C(=O)C(C1OC(=O)c2ccccc21)[N+](=O)[O-] (stereo not drawn)
inactive: 786-0 > 100 µM | A549 > 100 µM | CCRF-CEM > 100 µM | HCT-116 > 100 µM | HL-60 > 100 µM | HOP-62 81.8 µM | HOP-92 15.1 µM | IGROV-1 > 100 µM | MOLT-4 > 100 µM | NCI-H460 > 100 µM | OVCAR-3 > 100 µM | RPMI-8226 89.9 µM | RXF 393 > 100 µM | SF-295 > 100 µM | SK-MEL-5 > 100 µM | SN12C > 100 µM | SR > 100 µM | UACC-257 > 100 µM | UO-31 23.5 µM

Cc1noc(/N=C2\C=C(Nc3onc(C)c3C)C(=O)c3ccccc32)c1C
inactive: 786-0 > 100 µM | A549 87.1 µM | CCRF-CEM > 100 µM | HCT-116 95.5 µM | HL-60 18.7 µM | HOP-62 > 100 µM | HOP-92 > 100 µM | IGROV-1 > 100 µM | MOLT-4 > 100 µM | NCI-H460 > 100 µM | OVCAR-3 2.88 µM | RPMI-8226 25.1 µM | RXF 393 > 100 µM | SF-295 > 100 µM | SK-MEL-5 15.6 µM | SN12C > 100 µM | SR 24.3 µM | UACC-257 36.7 µM | UO-31 17.6 µM

CC(=O)OCC1OC(n2cc([N+](=O)[O-])c(=O)[nH]c2=O)C(OC(C)=O)C(OC(C)=O)C1OC(C)=O (stereo not drawn)
inactive: 786-0 > 100 µM | A549 > 100 µM | CCRF-CEM > 100 µM | HCT-116 > 100 µM | HL-60 > 100 µM | HOP-62 > 100 µM | HOP-92 > 100 µM | IGROV-1 > 100 µM | MOLT-4 > 100 µM | NCI-H460 > 100 µM | OVCAR-3 > 100 µM | RPMI-8226 > 100 µM | RXF 393 76 µM | SF-295 > 100 µM | SK-MEL-5 > 100 µM | SN12C > 100 µM | SR > 100 µM | UACC-257 > 100 µM | UO-31 > 100 µM

CCOC(=O)Cc1csc2[n+]1C(=O)/C(=C/c1cccc(OC)c1O)S2
inactive: 786-0 68.7 µM | A549 67.5 µM | HCT-116 45.5 µM | HL-60 45.8 µM | HOP-62 > 100 µM | HOP-92 93.8 µM | IGROV-1 45.4 µM | MCF7 45.3 µM | MOLT-4 4.43 µM | NCI-H460 41.9 µM | OVCAR-3 38.2 µM | SF-295 73.5 µM | SK-MEL-5 42.9 µM | SN12C 81.5 µM | UACC-257 61.8 µM | UO-31 28.7 µM

CC(C)=CCCC(C)[C@H]1CC(O)C2(C)C3=CCC4C(C)(C)[C@@H](O)CC[C@]4(C)C3=CC[C@]12C (stereo partly drawn)
inactive: 786-0 1.55 µM | A549 2.66 µM | CCRF-CEM 5.25 µM | HCT-116 2.4 µM | HL-60 3.69 µM | HOP-62 5.83 µM | HOP-92 3.27 µM | IGROV-1 9.29 µM | MOLT-4 15.2 µM | NCI-H460 2.24 µM | OVCAR-3 3.2 µM | RPMI-8226 3.27 µM | RXF 393 2.92 µM | SF-295 2.24 µM | SK-MEL-5 14.3 µM | SN12C 3.14 µM | SR 11.6 µM | UACC-257 22.5 µM | UO-31 14.3 µM
